Results reported in patent US11279736B2, “Conformationally-preorganized, MiniPEG-containing gamma-peptide nucleic acids” (CARNEGIE MELLON UNIVERSITY, priority 2011, dated 2022).
[RMPγPNA-N] = PNA unit with R-MP-gamma backbone modification (N: the base)

Columns and labels:
[1] = tested on: DNA fragment, 171 bp in length (no complementary sequence); experiment: Non-denaturing gel-shift assay for non-specific (off-target) binding
Experimental: FIG. 6 illustrates the results of a non-denaturing gel-shift assay that was aimed at evaluating the extent of non-specific binding for an unmodified PNA oligomer (PNA6) and a oligomer containing the inventive R-MP-γPNA monomer (PNA10).
To assess the extent of off-target binding of PNA and ^R-MPγPNA, a gel-shift assay is performed. In this case, a DNA fragment, 171 bp in length, is incubated with different concentrations of PNA6 and PNA10 (Table 1) in 10 mM sodium phosphate buffer at 37° C. for 16 hr. The two oligomers contain identical nucleobase sequence but differ from another at the γ-backbone. PNA6 is unmodified, whereas PNA10 is modified at every other position with R-MP-γ side-chain. Following incubation, the samples are separated on non-denaturing polyacrylamide gel and stained with SYBR-Gold.

[2] = Water solubility, saturated concentration by UV-spectroscopy; format: physicochemical; settings: saturated solution in water
Experimental: To determine whether inclusion of miniPEG in the backbone of a Formula I PNA has an effect on water solubility of the resultant oligomer, saturating concentrations of PNA6 through 10 (Table 1) were prepared in water and the concentrations of each solution was measured by UV-spectroscopy. The incorporation of a single MP unit enhances the solubility of PNA6 by nearly 2-fold (Table 5). The solubility of the oligomers is further improved, albeit to a smaller extent, with additional MP units.

[3] = tested on: complementary DNA strand; experiment: UV-melting / van't Hoff analysis of PNA-DNA hybrid duplexes; format: binding; settings: PNA-DNA duplex; for −ΔG° / −ΔH° / −ΔTS°: averages of three trials
Experimental: (§1) FIGS. 2A-2B illustrate UV-melting profiles of PNA-DNA (FIG. 2A) and PNA-RNA (FIG. 2B) hybrid duplexes at a strand concentration of […] each in 10 mM sodium phosphate buffer at pH 7.4. While both the heating and cooling runs were performed because they both have nearly identical profiles UV-melting for only the heating runs are shown.
UV-melting experiments were performed to determine the effect of MP on the thermal stability of PNA oligomers following hybridization to DNA or an RNA. FIG. 3A illustrates that the incorporation of a single miniPEG side-chain stabilized a PNA-DNA duplex by 4° C. […] However, increase in thermal stability tapers off to a value of about 2.3° C. per unit for the fully-modified oligomer, that is an oligomer made up of R-MP-γPNA groups only (e.g., PNA5).
(§2) Further insights related to the contribution of miniPEG to the stability of the PNA-DNA duplex was obtained from van′t Hoff analysis. Data in Table 2 show the thermodynamic parameters associated with hybridization of PNA1 through 5 to a complementary DNA or RNA strand.

[4] = tested on: immobilized complementary DNA; experiment: Surface plasmon resonance (SPR) hybridization kinetics; format: binding; settings: for association rate constant ka / dissociation rate constant kd: 1:1 binding model; for dissociation rate constant kd: † values approach limits of detection
Experimental: FIG. 4 illustrates surface plamon resonance (SPR) sensorgrams (solid black lines) and fits (dotted lines) for hybridization of PNA probes to immobilized complementary DNA. Solutions contained 30 nM PNA. Error bars at t=420 sec illustrate standard deviations for three separate trials.
Surface plasmon resonance (SPR) analysis is used to study the hybridization kinetics of ^R-MPγPNA-DNA and ^R-MPγPNA-RNA duplexes. Briefly, SPR was performed as follows. According to one embodiment, the PNA probe was immobilized to the chip while the DNA target was captured from solution. In another embodiment, a biotinylated version of the DNA target is immobilized on a streptavidin-conjugated, carboxymethylated dextran chip at a relatively low surface density (ca. 100 response units) of DNA targets to limit mass transport effects on the association kinetics. Solutions containing 10-50 nM PNA oligomers are allowed to flow over the chip for about 420 seconds, at which point the flow is switched to a PNA-free buffer to allow net dissociation of the hybridized PNA.

[5] = tested on: complementary RNA strand; experiment: UV-melting / van't Hoff analysis of PNA-RNA hybrid duplexes; format: binding
Experimental: as §1
A similar pattern is observed for a R-MP-γPNA-RNA duplex, but the observed increase in thermal stability is lower for a R-MP-γPNA-RNA duplex as compared to a R-MP-γPNA-DNA duplex (FIG. 3B). The enhancement in thermal stability of a R-MP-γPNA-RNA duplex is only 3° C. for the first R-MP-γPNA-monomer that is incorporated into the PNA oligomer and this gain in thermal stability reduces to about 1.2° C. per R-MP-γPNA monomer for an oligomer made entirely R-MP-γPNA (PNA5). In contrast the gain in thermal stability is about 2.3° C./unit for R-MP-γPNA-DNA duplexes.
as §2

[6] = Temperature-dependent CD measurements of PNA oligomers; format: physicochemical; settings: 80° C.; 5 μM oligomer, 10 mM sodium phosphate buffer pH 7.4
Experimental: FIG. 1A illustrates CD spectra of PNA5 and PNA2 (Inset) as a function of temperature. Melting transition (Tm) of PNA2 through 5 as determined by CD, monitored at 260 nm. The oligomer concentration was 5 μM, prepared in 10 mM sodium phosphate buffer at pH 7.4.

[7] = tested on: DNA: 3′-[…]-5, X = A, C, G, T (SEQ ID NO: 11); experiment: Sequence mismatch discrimination, thermal stability of PNA-DNA duplexes; format: binding
Experimental: (§3) CD, NMR, and X-ray data have shown that γPNAs derived from L-amino acids adopt a right-handed helix, and that the helix becomes more rigid as more γ-chiral units are added in the backbone. One would therefore expect a fully-modified PNA5 to hybridize to DNA and RNA targets with greater sequence selectivity than PNA1. To verify this hypothesis, thermal stabilities of PNA5-DNA and PNA5-RNA duplexes containing perfectly-matched (PM) and single-base mismatched (MM) targets were determined and compared to those from an earlier study with PNA1-DNA and PNA1-RNA duplexes. […] The ΔTm ranges from −17 to −21° C. for PNA5-DNA and −16 to −20° C. for PNA5-RNA containing a single-base mismatch (X=C, G, T), as compared to −10 to −14° C. for PNA1-DNA and −11 to −18° C. for PNA1-RNA duplex (Table 4). The level of sequence discrimination is greater for PNA5-DNA than for PNA1-DNA, and similar, if not slightly better, for PNA5-RNA as compared to PNA1-RNA.

[8] = tested on: RNA: 3′-CGUACAXACU-5, X = A, C, G, U (SEQ ID NO: 12); experiment: Sequence mismatch discrimination, thermal stability of PNA-RNA duplexes; format: binding
Experimental: as §3

[9] = PNA-RNA duplex, 298 K, UV-melting curve fitting

## H-ACGGGTAGAATAACAT-NH2 [PNA6] (all peptide nucleic acid (PNA); PNA oligomer with free N-terminus and C-terminal amide)
[1]; 10 μM (PNA/DNA ratio of 25:1) or higher
  intensity of the DNA band: completely disappeared
[1]; increasing concentrations of oligomer, 37° C., 16 hr
  intensity of the DNA band: drastic reduction
[2]
  Sat. conc.: 39 mM

## H-ACGGGTAGAATAACAT-NH2 [PNA9] (PNA; 5 R-MP-gamma units; C-terminal amide; modified_base (3)..(3) R-MP-gamma-backbone modified nucleotide; modified_base (6)..(6) R-MP-gamma-backbone modified nucleotide; modified_base (9)..(9) R-MP-gamma-backbone modified nucleotide; modified_base (12)..(12) R-MP-gamma-backbone modified nucleotide; modified_base (15)..(15) R-MP-gamma-backbone modified nucleotide)
[2]
  Sat. conc.: 350 mM

## H-ACGGGTAGAATAACAT-NH2 [PNA10] (PNA; 8 R-MP-gamma units; C-terminal amide; modified_base (2)..(2) R-MP-gamma-backbone modified nucleotide; modified_base (4)..(4) R-MP-gamma-backbone modified nucleotide; modified_base (6)..(6) R-MP-gamma-backbone modified nucleotide; modified_base (8)..(8) R-MP-gamma-backbone modified nucleotide; modified_base (10)..(10) R-MP-gamma-backbone modified nucleotide; modified_base (12)..(12) R-MP-gamma-backbone modified nucleotide; modified_bas)
[1]; up to 20 μM (PNA/DNA ratio of 50:1)
  intensity of the DNA bands: remained fairly constant
[2]
  Sat. conc.: >500 mM

## H-GCATGTTTGA-NH2 [PNA2] (PNA; 1 R-MP-gamma unit; C-terminal amide; modified_base (6)..(6) R-MP-gamma-backbone modified nucleotide)
[3]; 298 K, UV melting
  Kd: 0.32 nM
[3]; 298 K
  −ΔG°: 12.9 ± 0.24 kcal/mol
  −ΔH°: 76.2 ± 4.3 kcal/mol
  −ΔTS°: 62.9 ± 3.82 kcal/mol
[4]; SPR, 30 nM PNA
  association kinetics relative to the unmodified PNA: approximately twice as fast
[4]; SPR
  association rate constant ka: 970000 M⁻¹ s⁻¹
  dissociation rate constant kd: 0.00041 s⁻¹
[4]; SPR, ratio of dissociation and association rate constants, † values uncertain, read-out: equilibrium dissociation constant Kd
  Kd: 0.42 nM
[5]; [9]
  Kd: 0.0012 nM
  −ΔG°: 16.3 kcal/mol
  −ΔH°: 79.6 kcal/mol
  −ΔTS°: 55.4 kcal/mol
[6]
  CD profile / base-stacking at high temperature: completely denatured

## H-GCATGTTTGA-NH2 [PNA5] (all [RMPγPNA-N], methylation of C not given here; C-terminal amide)
[3]; UV-melting
  increase in thermal stability per miniPEG unit: about 2.3 °C per unit
[3]; 298 K
  −ΔG°: 18.6 ± 0.48 kcal/mol
  −ΔH°: 88.9 ± 2.63 kcal/mol
  −ΔTS°: 70.3 ± 2.39 kcal/mol
[7]; C<>T mismatch
  Tm: 47 °C
  ΔTm between the perfect match and mismatch: (−21) ° C.
[7]; G<>T mismatch
  Tm: 48 °C
  ΔTm between the perfect match and mismatch: (−20) ° C.
[7]; T(U)<>T mismatch
  Tm: 51 °C
  ΔTm between the perfect match and mismatch: (−17) ° C.
[7]; X = A (A-T perfect match)
  Tm: 68 °C
[7]; range over mismatches
  ΔTm, single-base mismatch (X=C, G, T): −17 to −21 °C
[4]; SPR
  association rate constant ka: 800000 M⁻¹ s⁻¹
  dissociation rate constant kd: 0.4 × 10^−4 ^† s^−1
[4]; Table 3 versus Table 2, DNA target
  SPR-derived Kd relative to Kd determined by UV melting experiments: 1200 fold
[8]; C<>T mismatch
  Tm: 48 °C
  ΔTm between the perfect match and mismatch: (−20) ° C.
[8]; G<>T mismatch
  Tm: 52 °C
  ΔTm between the perfect match and mismatch: (−16) ° C.
[8]; T(U)<>T mismatch
  Tm: 48 °C
  ΔTm between the perfect match and mismatch: (−20) ° C.
[8]; X = A (A-T perfect match)
  Tm: 68 °C
[8]; range over mismatches
  ΔTm, single-base mismatch (X=C, G, T): −16 to −20 °C
[5]; PNA-RNA duplex, UV-melting
  gain in thermal stability per R-MP-γPNA monomer: about 1.2 °C per R-MP-γPNA monomer
[5]; [9]
  −ΔG°: 18.6 kcal/mol
  −ΔH°: 87.2 kcal/mol
  −ΔTS°: 68.6 kcal/mol
[5]; duplex with RNA compared to duplex with DNA
  differential Tm (ΔTm), RNA versus DNA binding: identical thermal stability
[6]
  CD profile / base-stacking at high temperature: distinct CD profile
